Source: patent publication US10100058B2, “Fused heterocyclic compounds as CaM kinase inhibitors” (Gilead Sciences, Inc., priority 2016, dated 2018)

Target: recombinant CaMKIIδ (Homo sapiens (Human), UniProt Q13557)
Experiment: CaMKIIδ biochemical assay (HTRF)
Conditions: 10 pM CaMKIIδ, 110 nM calmodulin, 12 μM ATP, 1 hour; read-out: CAMKIID-HTRF-384V2 (IC50 - nM)
Procedure: CaMKIIδ Biochemical Assay
The biochemical activity of recombinant CaMKIIδ was measured by monitoring the phosphorylation of a target peptide using Homogenous Time Resolved Fluorescence (HTRF) technology from CisBio Bioassays.

SMILES | IC50
CCN(CC)[C@@H](C)CNC(=O)c1ccnc(-c2cnn3ccc(-c4ccccc4)nc23)c1 [Example 38, (S)—N-(2-(diethylamino)propyl)-2-(5-phenylpyrazolo[1,5-a]pyrimidin-3-yl)isonicotinamide] | 2.08 nM
CN(C)CCNC(=O)c1ccnc(-c2cnn3ccc(-c4ccccc4)nc23)c1 [Example 39, N-(2-(dimethylamino)ethyl)-2-(5-phenylpyrazolo[1,5-a]pyrimidin-3-yl)isonicotinamide] | 137 nM
CC1(C)CNC1CNC(=O)c1ccnc(-c2cnn3ccc(-c4ccccc4)nc23)c1 (stereo not drawn) [Example 41, N-((3,3-dimethylazetidin-2-yl)methyl)-2-(5-phenylpyrazolo[1,5-a]pyrimidin-3-yl)isonicotinamide] | 119 nM
CCN[C@@H](C)CNC(=O)c1ccnc(-c2cnn3ccc(-c4ccccc4)nc23)c1 [Example 42, (S)—N-(2-(ethylamino)propyl)-2-(5-phenylpyrazolo[1,5-a]pyrimidin-3-yl)isonicotinamide] | 14.4 nM
CC[C@]1(CNC(=O)c2ccnc(-c3cnn4ccc(-c5ccccc5)nc34)c2)CCCN1 [Example 43, (R)—N-((2-ethylpyrrolidin-2-yl)methyl)-2-(5-phenylpyrazolo[1,5-a]pyrimidin-3-yl)isonicotinamide] | 27.7 nM
C[C@H](N)CNC(=O)c1ccnc(-c2cnn3ccc(-c4ccccc4)nc23)c1 [Example 44, (S)—N-(2-aminopropyl)-2-(5-phenylpyrazolo[1,5-a]pyrimidin-3-yl)isonicotinamide] | 43.1 nM
CCCC(N)CNC(=O)c1ccnc(-c2cnn3ccc(-c4ccccc4)nc23)c1 (stereo not drawn) [Example 48, N-(2-aminopentyl)-2-(5-phenylpyrazolo[1,5-a]pyrimidin-3-yl)isonicotinamide] | 25.7 nM
CCC(CNC(=O)c1ccnc(-c2cnn3ccc(-c4ccccc4)nc23)c1)NCC1CC1 (stereo not drawn) [Example 50, N-(2-((cyclopropylmethyl)amino)butyl)-2-(5-phenylpyrazolo[1,5-a]pyrimidin-3-yl)isonicotinamide] | 8.52 nM
CCCNC(CNC(=O)c1ccnc(-c2cnn3ccc(-c4ccccc4)nc23)c1)C(C)C (stereo not drawn) [Example 53, N-(3-methyl-2-(propylamino)butyl)-2-(5-phenylpyrazolo[1,5-a]pyrimidin-3-yl)isonicotinamide] | 4.79 nM
CCNC(CNC(=O)c1ccnc(-c2cnn3ccc(-c4ccccc4)nc23)c1)C(C)C (stereo not drawn) [Example 55, N-(2-(ethylamino)-3-methylbutyl)-2-(5-phenylpyrazolo[1,5-a]pyrimidin-3-yl)isonicotinamide] | 12 nM
CCN(CC)C(CNC(=O)c1ccnc(-c2cnn3ccc(-c4ccccc4)nc23)c1)C(C)C (stereo not drawn) [Example 61, N-(2-(diethylamino)-3-methylbutyl)-2-(5-phenylpyrazolo[1,5-a]pyrimidin-3-yl)isonicotinamide] | 3.6 nM
CCN(CCN)C(=O)c1ccnc(-c2cnn3ccc(-c4ccccc4)nc23)c1 [Example 65, N-(2-aminoethyl)-N-ethyl-2-(5-phenylpyrazolo[1,5-a]pyrimidin-3-yl)isonicotinamide] | 12.6 nM
N[C@H](CNC(=O)c1ccnc(-c2cnn3ccc(-c4ccccc4)nc23)c1)COc1ncccn1 [Example 66, (R)—N-(2-amino-3-(pyrimidin-2-yloxy)propyl)-2-(5-phenylpyrazolo[1,5-a]pyrimidin-3-yl)isonicotinamide] | 205 nM
O=C(c1ccnc(-c2cnn3ccc(-c4ccccc4)nc23)c1)N1CCCCC12CCCNC2 (stereo not drawn) [Example 68, (2-(5-phenylpyrazolo[1,5-a]pyrimidin-3-yl)pyridin-4-yl)(1,8-diazaspiro[5.5]undecan-1-yl)methanone] | 26.3 nM
CCN[C@H](CNC(=O)c1ccnc(-c2cnn3ccc(-c4ccccc4)nc23)c1)COc1ncccn1 [Example 69, (R)—N-(2-(ethylamino)-3-(pyrimidin-2-yloxy)propyl)-2-(5-phenylpyrazolo[1,5-a]pyrimidin-3-yl)isonicotinamide] | 91.1 nM
CCN(CC)[C@H](CNC(=O)c1ccnc(-c2cnn3ccc(-c4ccccc4)nc23)c1)COc1ncccn1 [Example 70, (R)—N-(2-(diethylamino)-3-(pyrimidin-2-yloxy)propyl)-2-(5-phenylpyrazolo[1,5-a]pyrimidin-3-yl)isonicotinamide] | 30.1 nM
CCN[C@H](C)CNC(=O)c1ccnc(-c2cnn3ccc(-c4ccccc4)nc23)c1 [Example 74, (R)—N-(2-(ethylamino)propyl)-2-(5-phenylpyrazolo[1,5-a]pyrimidin-3-yl)isonicotinamide] | 34.2 nM
CC[C@@]1(CNC(=O)c2ccnc(-c3cnn4ccc(-c5ccccc5)nc34)c2)CCCN1 [Example 75, (S)—N-((2-ethylpyrrolidin-2-yl)methyl)-2-(5-phenylpyrazolo[1,5-a]pyrimidin-3-yl)isonicotinamide] | 39.3 nM
O=C(c1ccnc(-c2cnn3ccc(-c4cccs4)nc23)c1)N1CC2CCC(C1)NC2 (stereo not drawn) [Example 76] | 3.47 nM
O=C(c1ccnc(-c2cnn3ccc(-c4cccs4)nc23)c1)N1CC2CCC[C@@H](C1)NC2 [Example 77, ((1S)-3,9-diazabicyclo[3.3.2]decan-3-yl)(2-(5-(thiophen-2-yl)pyrazolo[1,5-a]pyrimidin-3-yl)pyridin-4-yl)methanone] | 2.7 nM
O=C(c1ccnc(-c2cnn3ccc(-c4cccs4)nc23)c1)N1CC2CNC(COC2)C1 (stereo not drawn) [Example 81] | 7.33 nM
O=C(c1ccnc(-c2cnn3ccc(-c4cccs4)nc23)c1)N1C2CCNCC1CC2 (stereo not drawn) [Example 82] | 6.14 nM
N[C@H]1CCCN(C(=O)c2ccnc(-c3cnn4ccc(-c5cccs5)nc34)c2)C1 [Example 83, (S)-(3-aminopiperidin-1-yl)(2-(5-(thiophen-2-yl)pyrazolo[1,5-a]pyrimidin-3-yl)pyridin-4-yl)methanone] | 18.8 nM
C[C@@H]1CNCCN1C(=O)c1ccnc(-c2cnn3ccc(-c4cccs4)nc23)c1 [Example 84, (R)-(2-methylpiperazin-1-yl)(2-(5-(thiophen-2-yl)pyrazolo[1,5-a]pyrimidin-3-yl)pyridin-4-yl)methanone] | 17.5 nM

More lines, in order of falling IC50, values ahead:

IC50 | SMILES
391 nM | C[C@@H](CNC(=O)c1ccnc(-c2cnn3ccc(-c4ccccc4)nc23)c1)NCc1ncccn1 [Example 49, (S)-2-(5-phenylpyrazolo[1,5-a]pyrimidin-3-yl)-N-(2-((pyrimidin-2-ylmethyl)amino)propyl) isonicotinamide]
216 nM | CC(CN)NC(=O)c1ccnc(-c2cnn3ccc(-c4ccccc4)nc23)c1 (stereo not drawn) [Example 62, N-(1-aminopropan-2-yl)-2-(5-phenylpyrazolo[1,5-a]pyrimidin-3-yl)isonicotinamide]
102 nM | CCNC(C)(C)CNC(=O)c1ccnc(-c2cnn3ccc(-c4ccccc4)nc23)c1 [Example 67, N-(2-(ethylamino)-2-methylpropyl)-2-(5-phenylpyrazolo[1,5-a]pyrimidin-3-yl)isonicotinamide]
77.4 nM | CCC(C)N[C@@H](C)CNC(=O)c1ccnc(-c2cnn3ccc(-c4ccccc4)nc23)c1 (stereo partly drawn) [Example 45, N-((2S)-2-(sec-butylamino)propyl)-2-(5-phenylpyrazolo[1,5-a]pyrimidin-3-yl)isonicotinamide]
35.3 nM | CC(C)C(N)CNC(=O)c1ccnc(-c2cnn3ccc(-c4ccccc4)nc23)c1 (stereo not drawn) [Example 47, N-(2-amino-3-methylbutyl)-2-(5-phenylpyrazolo[1,5-a]pyrimidin-3-yl)isonicotinamide]
31.9 nM | CC(C)NC(CNC(=O)c1ccnc(-c2cnn3ccc(-c4ccccc4)nc23)c1)C(C)C (stereo not drawn) [Example 73, N-(2-(isopropylamino)-3-methylbutyl)-2-(5-phenylpyrazolo[1,5-a]pyrimidin-3-yl)isonicotinamide]
26.5 nM | N[C@@H](CO)CNC(=O)c1ccnc(-c2cnn3ccc(-c4ccccc4)nc23)c1 [Example 57, (R)—N-(2-amino-3-hydroxypropyl)-2-(5-phenylpyrazolo[1,5-a]pyrimidin-3-yl)isonicotinamide]
23.7 nM | CCC(N)CNC(=O)c1ccnc(-c2cnn3ccc(-c4ccccc4)nc23)c1 (stereo not drawn) [Example 46, N-(2-aminobutyl)-2-(5-phenylpyrazolo[1,5-a]pyrimidin-3-yl)isonicotinamide]
13.4 nM | CCNC(CC)CNC(=O)c1ccnc(-c2cnn3ccc(-c4ccccc4)nc23)c1 (stereo not drawn) [Example 54, N-(2-(ethylamino)butyl)-2-(5-phenylpyrazolo[1,5-a]pyrimidin-3-yl)isonicotinamide]
9.61 nM | CCCNC(CC)CNC(=O)c1ccnc(-c2cnn3ccc(-c4ccccc4)nc23)c1 (stereo not drawn) [Example 51, 2-(5-phenylpyrazolo[1,5-a]pyrimidin-3-yl)-N-(2-(propylamino)butyl)isonicotinamide]
7.03 nM | CCN(CC)C(C)CNC(=O)c1ccnc(-c2cnn3ccc(-c4ccccc4)nc23)c1 (stereo not drawn) [Example 37, N-(2-(diethylamino)propyl)-2-(5-phenylpyrazolo[1,5-a]pyrimidin-3-yl)isonicotinamide]
5.34 nM | CCN[C@@H](CO)CNC(=O)c1ccnc(-c2cnn3ccc(-c4ccccc4)nc23)c1 [Example 59, (R)—N-(2-(ethylamino)-3-hydroxypropyl)-2-(5-phenylpyrazolo[1,5-a]pyrimidin-3-yl)isonicotinamide]
4.98 nM | CC(C)C(CNC(=O)c1ccnc(-c2cnn3ccc(-c4ccccc4)nc23)c1)NCC1CC1 (stereo not drawn) [Example 52, N-(2-((cyclopropylmethyl)amino)-3-methylbutyl)-2-(5-phenylpyrazolo[1,5-a]pyrimidin-3-yl)isonicotinamide]
2.85 nM | NC[C@H]1CCCN1C(=O)c1ccnc(-c2cnn3ccc(-c4cccs4)nc23)c1 [Example 79, (R)-(2-(aminomethyl)pyrrolidin-1-yl)(2-(5-(thiophen-2-yl)pyrazolo[1,5-a]pyrimidin-3-yl)pyridin-4-yl)methanone]
2.35 nM | CCCC(CNC(=O)c1ccnc(-c2cnn3ccc(-c4ccccc4)nc23)c1)N(CC)CC (stereo not drawn) [Example 60, N-(2-(diethylamino)pentyl)-2-(5-phenylpyrazolo[1,5-a]pyrimidin-3-yl)isonicotinamide]
